This is an account of results in patent publication US20070082880A1 (priority 2005, published 2007).

Usually IC50 stands for the concentration needed to halve the response being measured. Low readings indicate greater potency, high ones weaker potency. By melting point is commonly meant the temperature, or range, at which the solid turns liquid.

Structures can show the parent of a compound that is named as a salt.

For data set [1], the target named is PKCθ (Homo sapiens, UniProt Q04759). Put plainly: PKCθ Scintiplate Assay. The format is biochemical. The note with it: average value when one or more samples were tested. The method, then:
This assay detects the phosphorylation of a biotinylated substrate by kinase utilizing radiolabeled ATP (ATP γ P33). The enzyme is either recombinant full length PKCθ (Panvera, P2996) or the purified recombinant active kinase domain of full length PKCθ (amino acids 362-706). The substrate in this assay is a biotinylated peptide with a sequence of biotin-[…]-CONH2. The assay buffer is composed of 100 mM Hepes, pH7.5, 2 mM MgCl2, 20 mM β-glycerophosphate and 0.008% TritonX 100. A reaction mixture of ATP, ATP γ P33 (PerkinElmer), DTT, lipid activator, and the enzyme is prepared in the assay buffer and added to a 96 well polypropylene plate. The compound (diluted in DMSO in a separate 96-well polypropylene plate) is added to the reaction mixture and incubated at room temperature. Following the incubation, the peptide substrate is added to the reaction mixture to initiate the enzymatic reaction. The reaction is terminated with the addition of a stop solution (10 mM EDTA, 0.2% TritonX100, and 100 mM NaHPO4) and transferred from the assay plate to a washed streptavidin-coated 96 well scintiplate (PerkinElmer). The scintiplate is incubated at room temperature, washed in PBS with 0.1% TritonX 100, and counted in the 1450 Microbeta Trilux (Wallac, Version 2.60). Counts are recorded for each well as corrected counts per minute (CCPM). The counts are considered corrected because they are adjusted according to a P33 normalization protocol, which corrects for efficiency and background differences between the instrument detectors (software version 4.40.01).

Data set [2] addresses T1, human PKCθ full length enzyme (Homo sapiens, UniProt Q04759).
T1 construct: human PKCθ full length enzyme (Panvera Catalog No. P2996); purchased Panvera P2996
Put plainly: PKCθ IMAP Assay. The class given is biochemical. The note with it: average value when one or more samples were tested; ATP 6 uM, PKCθ 1 nM. The method in brief: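 IMAP fluorescence polarization after 20 min with binding beads measured phosphorylation of 100 nM 5FAM-peptide. Reactions held 1 nM full-length human PKCθ, 6 uM ATP, 5% DMSO and DTT-containing buffer, 25 min at room temperature. Compounds tested as 2:1 serial dilutions; controls lacked ATP or enzyme.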

T1 sequence (Q04759 whole entry): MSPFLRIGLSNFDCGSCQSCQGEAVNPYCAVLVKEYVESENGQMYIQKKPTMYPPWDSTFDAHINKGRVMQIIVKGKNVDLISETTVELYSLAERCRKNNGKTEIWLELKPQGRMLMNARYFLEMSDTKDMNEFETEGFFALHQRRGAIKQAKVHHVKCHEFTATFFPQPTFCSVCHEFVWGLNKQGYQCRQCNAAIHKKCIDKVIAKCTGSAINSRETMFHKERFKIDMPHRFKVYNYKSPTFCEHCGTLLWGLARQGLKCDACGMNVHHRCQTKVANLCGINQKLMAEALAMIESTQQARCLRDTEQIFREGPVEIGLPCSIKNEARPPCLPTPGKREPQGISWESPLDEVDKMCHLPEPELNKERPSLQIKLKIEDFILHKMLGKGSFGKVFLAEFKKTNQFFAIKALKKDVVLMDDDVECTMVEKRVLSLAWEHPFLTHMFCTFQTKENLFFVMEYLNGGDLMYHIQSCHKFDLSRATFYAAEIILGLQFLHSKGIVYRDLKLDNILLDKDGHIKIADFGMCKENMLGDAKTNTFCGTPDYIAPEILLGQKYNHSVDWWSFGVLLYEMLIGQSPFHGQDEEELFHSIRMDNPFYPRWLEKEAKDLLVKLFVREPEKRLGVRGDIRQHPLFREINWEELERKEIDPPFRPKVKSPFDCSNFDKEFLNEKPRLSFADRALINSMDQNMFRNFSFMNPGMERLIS
PKCθ, sequence (Q04759 362-706 limits assumed): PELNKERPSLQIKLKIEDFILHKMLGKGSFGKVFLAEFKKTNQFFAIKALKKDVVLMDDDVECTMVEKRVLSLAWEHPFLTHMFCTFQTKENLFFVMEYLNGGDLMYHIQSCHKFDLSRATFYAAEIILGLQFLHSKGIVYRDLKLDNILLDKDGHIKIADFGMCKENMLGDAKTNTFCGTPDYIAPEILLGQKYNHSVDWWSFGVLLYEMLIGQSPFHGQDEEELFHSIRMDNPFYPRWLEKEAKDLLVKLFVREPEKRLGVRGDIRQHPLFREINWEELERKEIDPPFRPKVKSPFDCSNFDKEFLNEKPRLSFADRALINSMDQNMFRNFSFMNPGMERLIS

`CN1CCN(Cc2ccc(-c3cc4c(Nc5ccc6[nH]ccc6c5)c(C#N)cnc4s3)cc2)CC1` [Compound 104, 4-(1H-indol-5-ylamino)-2-{4-[(4-methylpiperazin-1-yl)methyl]phenyl}thieno[2,3-b]pyridine-5-carbonitrile] had an IC50 in data set [1] of 280 nM.
Still for that read-out and setting: next, `CN(C)Cc1ccc(-c2cc3c(Nc4ccc5[nH]ccc5c4)c(C#N)cnc3s2)cc1` [Compound 105, 2-{4-[(dimethylamino)methyl]phenyl}-4-(1H-indol-5-ylamino)thieno[2,3-b]pyridine-5-carbonitrile]: 77 nM.
Regarding `N#Cc1cnc2sc(-c3ccc(CNCCO)cc3)cc2c1Nc1ccc2[nH]ccc2c1` [Compound 106, 2-(4-{[(2-hydroxyethyl)amino]methyl}phenyl)-4-(1H-indol-5-ylamino)thieno[2,3-b]pyridine-5-carbonitrile], the IC50 amounted to 140 nM in data set [2] and 80 nM in data set [1].
`N#Cc1cnc2sc(-c3ccccc3)cc2c1Nc1ccc2cc[nH]c2c1` [Compound 116, 4-(1H-indol-6-ylamino)-2-phenylthieno[2,3-b] pyridine-5-carbonitrile hydrochloride]: the IC50 was 5600 nM in data set [2] and more than 3300 nM in data set [1].
In the case of `Cc1c(Nc2c(C#N)cnc3sc(-c4ccccc4)cc23)ccc2[nH]ccc12` [Compound 117, 4-[(4-methyl-1H-indol-5-yl)amino]-2-phenylthieno[2,3-b]pyridine-5-carbonitrile], the IC50 in data set [2] was 60 nM; in data set [1], 28 nM.
As to `Cc1cc2cc(Nc3c(C#N)cnc4sc(-c5ccccc5)cc34)ccc2[nH]1` [Compound 118, 4-[(2-methyl-1H-indol-5-yl)amino]-2-phenylthieno[2,3-b]pyridine-5-carbonitrile], the IC50 in data set [2] stood at 1900 nM; in data set [1], 2700 nM.
`N#Cc1cnc2sc(-c3ccccc3)cc2c1Nc1ccc2[nH]cnc2c1` [Compound 119, 4-(1H-benzimidazol-5-ylamino)-2-phenylthieno[2,3-b]pyridine-5-carbonitrile] had an IC50 in data set [1] of 9100 nM.
On the same count and under the same terms, next, `Cc1cc(Nc2c(C#N)cnc3sc(-c4ccccc4)cc23)cc2cc[nH]c12` [Compound 120, 4-[(7-methyl-1H-indol-5-yl)amino]-2-phenylthieno[2,3-b]pyridine-5-carbonitrile]: 120000 nM; `N#Cc1cnc2sc(-c3ccccc3)cc2c1NCc1cccc2[nH]ccc12` [Compound 125, 4-(1H-indol-4-ylmethylamino)-2-phenylthieno[2,3-b]pyridine-5-carbonitrile]: more than 30000 nM; `CN1CCN(Cc2ccc(-c3cc4c(NCCc5c[nH]cn5)c(C#N)cnc4s3)cc2)CC1` [Compound 128, 4-{[2-(1H-imidazol-4-yl)ethyl]amino}-2-{4-[(4-methylpiperazin-1-yl)methyl]phenyl}thieno[2,3-b]pyridine-5-carbonitrile]: 7300 nM.
Take `N#Cc1cnc2sc(-c3ccccc3)cc2c1NC(=O)c1ccc2[nH]ccc2c1` [Compound 129, N-(5-cyano-2-phenylthieno[2,3-b]pyridin-4-yl)-1H-indole-5-carboxamide]: the IC50 in data set [2] was more than 100000 nM; in data set [1] it was more than 60000 nM.
As to `Cc1c[nH]c2ccc(Nc3c(C#N)cnc4sc(-c5ccccc5)cc34)cc12` [Compound 133, 4-[(3-methyl-1H-indol-5-yl)amino]-2-phenylthieno[2,3-b]pyridine-5-carbonitrile], the IC50 in data set [2] came to 1400 nM; in data set [1] it was 800 nM.
For the molecule `Cn1ccc2cc(Nc3c(C#N)cnc4sc(-c5ccccc5)cc34)ccc21` [Compound 134, 4-[(1-methyl-1H-indol-5-yl)amino]-2-phenylthieno[2,3-b]pyridine-5-carbonitrile], the IC50 in data set [1] is more than 200000 nM.
Still for that read-out and setting: next, `N#Cc1cnc2sc(-c3ccc(CN4CCOCC4)cc3)cc2c1Nc1cccc2[nH]ccc12` [Compound 138, 4-(1H-indol-4-ylamino)-2-[4-(morpholin-4-ylmethyl)phenyl]thieno[2,3-b]pyridine-5-carbonitrile]: 190 nM.
On to `CN(C)Cc1cccc(-c2cc3c(Nc4cccc5[nH]ccc45)c(C#N)cnc3s2)c1` [Compound 141, 2-{3-[(dimethylamino)methyl]phenyl}-4-(1H-indol-4-ylamino)thieno[2,3-b]pyridine-5-carbonitrile], for which the results for the IC50 in data set [2] and in data set [1] were 40 nM and 41 nM, respectively.
As to `CN1CCN(Cc2ccccc2-c2cc3c(Nc4cccc5[nH]ccc45)c(C#N)cnc3s2)CC1` [Compound 143, 4-(1H-indol-4-ylamino)-2-{2-[(4-methylpiperazin-1-yl)methyl]phenyl}thieno[2,3-b]pyridine-5-carbonitrile], the results for the half-maximal inhibitory concentration (IC50) in data set [2] and in data set [1] were 240 nM and 180 nM, respectively.
Molecule `CN1CCN(Cc2cccc(-c3cc4c(Nc5ccc6[nH]ccc6c5)c(C#N)cnc4s3)c2)CC1` [Compound 145, 4-(1H-indol-5-ylamino)-2-{3-[(4-methylpiperazin-1-yl)methyl]phenyl}thieno[2,3-b]pyridine-5-carbonitrile] displayed a half-maximal inhibitory concentration (IC50) in data set [1] of 90 nM.
Turning to `CN(C)Cc1cccc(-c2cc3c(Nc4ccc5[nH]ccc5c4)c(C#N)cnc3s2)c1` [Compound 147, 2-{3-[(dimethylamino)methyl]phenyl}-4-(1H-indol-5-ylamino)thieno[2,3-b]pyridine-5-carbonitrile], the results for the IC50 in data set [2] and in data set [1] were 75 nM and 43 nM, respectively.
Turning to `N#Cc1cnc2sc(-c3cccc(CN4CCN(CCc5ccccc5)CC4)c3)cc2c1Nc1ccc2[nH]ccc2c1` [Compound 152, 4-(1H-indol-5-ylamino)-2-(3-{[4-(2-phenylethyl)piperazin-1-yl]methyl}phenyl)thieno[2,3-b]pyridine-5-carbonitrile], in data set [1], the IC50 stood at 310 nM.
`N#Cc1cnc2sc(-c3ccc(N4CCOCC4)cc3)cc2c1Nc1ccc2[nH]ccc2c1` [Compound 189, 4-(1H-indol-5-ylamino)-2-(4-morpholin-4-ylphenyl)thieno[2,3-b]pyridine-5-carbonitrile] displayed a half-inhibitory concentration (IC50) in data set [1] of 2100 nM.
The molecule `CCN1CCN(CC/C=C/c2cc3c(Nc4ccc5[nH]ccc5c4)c(C#N)cnc3s2)CC1` [Compound 190, 2-[(1E)-4-(4-ethylpiperazin-1-yl)but-1-en-1-yl]-4-(1H-indol-5-ylamino)thieno[2,3-b]pyridine-5-carbonitrile] displayed an IC50 in data set [1] of 190 nM.
In the case of `CN(C)CCc1ccc(-c2cc3c(Nc4ccc5[nH]ccc5c4)c(C#N)cnc3s2)cc1` [Compound 192, 2-{4-[2-(dimethylamino)ethyl]phenyl}-4-(1H-indol-5-ylamino)thieno[2,3-b] pyridine-5-carbonitrile], the half-maximal inhibitory concentration (IC50) in data set [1] was determined as 45 nM.
As to `Cn1cncc1-c1cc2c(Nc3ccc4[nH]ccc4c3)c(C#N)cnc2s1` [Compound 205, 4-(1H-indol-5-ylamino)-2-(1-methyl-1H-imidazol-5-yl)thieno[2,3-b]pyridine-5-carbonitrile], in data set [1], the IC50 came out at 180 nM.
As for `CN1CCN(Cc2ncc(-c3cc4c(Nc5ccc6[nH]ccc6c5)c(C#N)cnc4s3)n2C)CC1` [Compound 210], in data set [1], 580 nM corresponded to half-maximal inhibition (IC50).
In turn, `N#Cc1cnc2sc(C#Cc3ccccc3)cc2c1Nc1ccc2[nH]ccc2c1` [Compound 215, 4-(1H-indol-5-ylamino)-2-(phenylethynyl)thieno[2,3-b]pyridine-5-carbonitrile] registered an IC50 in data set [1] of 500 nM.
As for `Cc1c(Nc2c(C#N)cnc3scc(C)c23)ccc2[nH]ccc12` [Compound 481, 3-Methyl-4-[(4-methyl-1H-indol-5-yl)amino]thieno[2,3-b]pyridine-5-carbonitrile], the melting point is 261 °C. The half-maximal inhibitory concentration (IC50) in data set [2] was found to be 46 nM.
The matching figures for `Cc1c(Nc2c(C#N)cnc3sc(-c4ccc(OCCN(C)C)cc4)cc23)ccc2[nH]ccc12` [Compound 494, 2-{4-[2-(dimethylamino)ethoxy]phenyl}-4-[(4-methyl-1H-indol-5-yl)amino]thieno[2,3-b]pyridine-5-carbonitrile]: 182 to 184 °C and 23 nM.
`N#Cc1cnc2sc(Cl)cc2c1Nc1ccc2[nH]ccc2c1` [Compound 495, 2-chloro-4-(1H-indol-5-ylamino)thieno[2,3-b]pyridine-5-carbonitrile] displayed a melting point of 228 °C. Further, the IC50 in data set [2] amounted to 395 nM.
In turn, `Cc1c(Nc2c(C#N)cnc3scc(CO)c23)ccc2[nH]ccc12` [Compound 496, 3-(Hydroxymethyl)-4-[(4-methyl-1H-indol-5-yl)amino]thieno[2,3-b]pyridine-5-carbonitrile] yielded a melting point of 230 °C. This molecule also showed an IC50 in data set [2] of 63 nM.
Molecule `N#Cc1c[n+]([O-])c2sc(-c3ccccc3)cc2c1Nc1ccc2[nH]ccc2c1` [Compound 500, 4-(1H-indol-5-ylamino)-2-phenylthieno[2,3-b]pyridine-5-carbonitrile 7-oxide] had a melting point of more than 245 °C. In addition, in data set [2], half-maximal inhibition (IC50) required 16800 nM.
